Assay results reported in US9326506B2, “Preparation method, agricultural composition and applications of natural brassinolide analogs” (CHENGDU NEWSUN CROPSCIENCE CO., LTD, priority 2012, dated 2016).

Test system: rice
Experiment: Low temperature assay on rice seedlings
Assay type: in vivo
Experimental: According to a low temperature assay, we measured parameters including plant height, number of leaf, area of leaf, number of tiller, weight of root at low temperature to completely determine effects of the natural brassinolide analogues on the resistance to low temperature of a plant.
The natural brassinolide analogues, BR1, BR2, BR3, BR4, BR5 and BR6, used herein, were those prepared by the method of Example 1. Respectively the analogues were dissolved into 95% (V/V) ethanol solution, and then diluted with pure water to 1 mg/L, 0.1 mg/L, 0.01 mg/L, 0.001 mg/L and 0.0001 mg/L. In addition, pure water was used as a control.
After rice seeds were disinfected by using 5% sodium hypochlorite solution treatment, they were rinsed with distilled water until their pH>7, placed into a petri dish in a dark incubator, and cultured by using water at 30° C.±2° C. for 9 days. Then respectively the nine-day-old etiolated seedlings of rice were immersed in the above solutions containing different concentrations of the natural brassinolide analogues or pure water, and cultured at the temperature of 1° C., 2° C., 3° C., 4° C. and 5° C. for 24 hr. The parameters including plant height, area of leaf and weight of root after 3, 6, 9 and 12 days and number of leaf and number of tiller after 12 days were measured.

Structure (SMILES): C=C(C(C)C)[C@@H](O)[C@H](O)[C@@H](C)[C@H]1CCC2C3COC(=O)C4C[C@H](O)[C@H](O)C[C@]4(C)C3CC[C@@]21C (stereo partly shown) [BR3]
- Height (0.01 mg/l, 3 °C, 9 days): 7.5 cm
- Weight of root (0.01 mg/l, 3 °C, 9 days): 2.9 g
- Area of leaf (0.01 mg/l, 3 °C, 12 days): 13.2 cm^2
- Height (0.01 mg/l, 3 °C, 12 days): 7.8 cm
- Number of leaf (0.01 mg/l, 3 °C, 12 days): 3
- Number of tiller (0.01 mg/l, 3 °C, 12 days): 2
- Weight of root (0.01 mg/l, 3 °C, 12 days): 2.9 g
- Area of leaf (0.01 mg/l, 4 °C, 3 days): 10.8 cm^2
- Height (0.01 mg/l, 4 °C, 3 days): 7.1 cm
- Weight of root (0.01 mg/l, 4 °C, 3 days): 2.5 g
- Area of leaf (0.01 mg/l, 4 °C, 6 days): 12.4 cm^2
- Height (0.01 mg/l, 4 °C, 6 days): 7.4 cm
- Weight of root (0.01 mg/l, 4 °C, 6 days): 2.6 g
- Area of leaf (0.01 mg/l, 4 °C, 9 days): 13 cm^2
- Height (0.01 mg/l, 4 °C, 9 days): 7.7 cm
- Weight of root (0.01 mg/l, 4 °C, 9 days): 2.9 g
- Area of leaf (0.01 mg/l, 4 °C, 12 days): 13.5 cm^2
- Height (0.01 mg/l, 4 °C, 12 days): 7.8 cm
- Number of leaf (0.01 mg/l, 4 °C, 12 days): 3
- Number of tiller (0.01 mg/l, 4 °C, 12 days): 2
- Weight of root (0.01 mg/l, 4 °C, 12 days): 3.0 g
- Area of leaf (0.01 mg/l, 5 °C, 3 days): 10.3 cm^2
- Height (0.01 mg/l, 5 °C, 3 days): 7.4 cm
- Weight of root (0.01 mg/l, 5 °C, 3 days): 2.8 g
- Area of leaf (0.01 mg/l, 5 °C, 6 days): 13.1 cm^2
- Height (0.01 mg/l, 5 °C, 6 days): 7.6 cm
- Weight of root (0.01 mg/l, 5 °C, 6 days): 3.0 g
- Area of leaf (0.01 mg/l, 5 °C, 9 days): 16.4 cm^2
- Height (0.01 mg/l, 5 °C, 9 days): 7.8 cm
- Weight of root (0.01 mg/l, 5 °C, 9 days): 3.4 g
- Area of leaf (0.01 mg/l, 5 °C, 12 days): 17 cm^2
- Height (0.01 mg/l, 5 °C, 12 days): 8.2 cm
- Number of leaf (0.01 mg/l, 5 °C, 12 days): 4
- Number of tiller (0.01 mg/l, 5 °C, 12 days): 3
- Weight of root (0.01 mg/l, 5 °C, 12 days): 3.9 g
- Area of leaf (0.1 mg/l, 1 °C, 3 days): 10.1 cm^2
- Height (0.1 mg/l, 1 °C, 3 days): 7.1 cm
- Weight of root (0.1 mg/l, 1 °C, 3 days): 2.8 g
- Area of leaf (0.1 mg/l, 1 °C, 6 days): 11 cm^2
- Height (0.1 mg/l, 1 °C, 6 days): 7.2 cm
- Weight of root (0.1 mg/l, 1 °C, 6 days): 2.9 g
- Area of leaf (0.1 mg/l, 1 °C, 9 days): 12.1 cm^2
- Height (0.1 mg/l, 1 °C, 9 days): 7.3 cm
- Weight of root (0.1 mg/l, 1 °C, 9 days): 3.4 g
- Area of leaf (0.1 mg/l, 1 °C, 12 days): 13.1 cm^2
- Height (0.1 mg/l, 1 °C, 12 days): 7.4 cm
- Number of leaf (0.1 mg/l, 1 °C, 12 days): 3
- Number of tiller (0.1 mg/l, 1 °C, 12 days): 3
- Weight of root (0.1 mg/l, 1 °C, 12 days): 3.6 g
- Area of leaf (0.1 mg/l, 2 °C, 3 days): 10.4 cm^2
- Height (0.1 mg/l, 2 °C, 3 days): 7.1 cm
- Weight of root (0.1 mg/l, 2 °C, 3 days): 2.8 g
- Area of leaf (0.1 mg/l, 2 °C, 6 days): 11.2 cm^2
- Height (0.1 mg/l, 2 °C, 6 days): 7.3 cm
- Weight of root (0.1 mg/l, 2 °C, 6 days): 3.0 g
- Area of leaf (0.1 mg/l, 2 °C, 9 days): 12.6 cm^2
- Height (0.1 mg/l, 2 °C, 9 days): 7.3 cm
- Weight of root (0.1 mg/l, 2 °C, 9 days): 3 g
- Area of leaf (0.1 mg/l, 2 °C, 12 days): 13.2 cm^2
- Height (0.1 mg/l, 2 °C, 12 days): 7.4 cm
- Number of leaf (0.1 mg/l, 2 °C, 12 days): 3
- Number of tiller (0.1 mg/l, 2 °C, 12 days): 3
- Weight of root (0.1 mg/l, 2 °C, 12 days): 3.2 g
- Area of leaf (0.1 mg/l, 3 °C, 3 days): 10.5 cm^2
- Height (0.1 mg/l, 3 °C, 3 days): 7.3 cm
- Weight of root (0.1 mg/l, 3 °C, 3 days): 2.5 g
- Area of leaf (0.1 mg/l, 3 °C, 6 days): 12 cm^2
- Height (0.1 mg/l, 3 °C, 6 days): 7.4 cm
- Weight of root (0.1 mg/l, 3 °C, 6 days): 2.7 g
- Area of leaf (0.1 mg/l, 3 °C, 9 days): 12.1 cm^2
- Height (0.1 mg/l, 3 °C, 9 days): 7.8 cm
- Weight of root (0.1 mg/l, 3 °C, 9 days): 2.7 g
- Area of leaf (0.1 mg/l, 3 °C, 12 days): 13.4 cm^2
- Height (0.1 mg/l, 3 °C, 12 days): 7.9 cm
- Number of leaf (0.1 mg/l, 3 °C, 12 days): 3
- Number of tiller (0.1 mg/l, 3 °C, 12 days): 2
- Weight of root (0.1 mg/l, 3 °C, 12 days): 2.9 g
- Area of leaf (0.1 mg/l, 4 °C, 3 days): 10.8 cm^2
- Height (0.1 mg/l, 4 °C, 3 days): 7.4 cm
- Weight of root (0.1 mg/l, 4 °C, 3 days): 2.5 g
- Area of leaf (0.1 mg/l, 4 °C, 6 days): 12 cm^2
- Height (0.1 mg/l, 4 °C, 6 days): 7.4 cm
- Weight of root (0.1 mg/l, 4 °C, 6 days): 2.7 g
- Area of leaf (0.1 mg/l, 4 °C, 9 days): 13.4 cm^2
- Height (0.1 mg/l, 4 °C, 9 days): 7.8 cm
- Weight of root (0.1 mg/l, 4 °C, 9 days): 2.9 g
- Area of leaf (0.1 mg/l, 4 °C, 12 days): 13.4 cm^2
- Height (0.1 mg/l, 4 °C, 12 days): 8.1 cm
- Number of leaf (0.1 mg/l, 4 °C, 12 days): 3
- Number of tiller (0.1 mg/l, 4 °C, 12 days): 2
- Weight of root (0.1 mg/l, 4 °C, 12 days): 3.1 g
- Area of leaf (0.1 mg/l, 5 °C, 3 days): 11 cm^2
- Height (0.1 mg/l, 5 °C, 3 days): 7.5 cm
- Weight of root (0.1 mg/l, 5 °C, 3 days): 2.9 g
- Area of leaf (0.1 mg/l, 5 °C, 6 days): 12.1 cm^2
- Height (0.1 mg/l, 5 °C, 6 days): 7.5 cm
- Weight of root (0.1 mg/l, 5 °C, 6 days): 3.2 g
- Area of leaf (0.1 mg/l, 5 °C, 9 days): 16.2 cm^2
- Height (0.1 mg/l, 5 °C, 9 days): 8 cm
- Weight of root (0.1 mg/l, 5 °C, 9 days): 3.5 g
- Area of leaf (0.1 mg/l, 5 °C, 12 days): 17.9 cm^2
- Height (0.1 mg/l, 5 °C, 12 days): 8.1 cm
- Number of leaf (0.1 mg/l, 5 °C, 12 days): 3
- Number of tiller (0.1 mg/l, 5 °C, 12 days): 2
- Weight of root (0.1 mg/l, 5 °C, 12 days): 4.1 g
- Area of leaf (1 mg/l, 1 °C, 3 days): 10 cm^2
- Height (1 mg/l, 1 °C, 3 days): 7.2 cm
- Weight of root (1 mg/l, 1 °C, 3 days): 2.6 g
- Area of leaf (1 mg/l, 1 °C, 6 days): 11 cm^2
- Height (1 mg/l, 1 °C, 6 days): 7.2 cm
- Weight of root (1 mg/l, 1 °C, 6 days): 3.1 g
- Area of leaf (1 mg/l, 1 °C, 9 days): 12.4 cm^2
- Height (1 mg/l, 1 °C, 9 days): 7.3 cm
- Weight of root (1 mg/l, 1 °C, 9 days): 3.1 g
- Area of leaf (1 mg/l, 1 °C, 12 days): 13 cm^2
- Height (1 mg/l, 1 °C, 12 days): 7.9 cm
- Number of leaf (1 mg/l, 1 °C, 12 days): 3
- Number of tiller (1 mg/l, 1 °C, 12 days): 3
- Weight of root (1 mg/l, 1 °C, 12 days): 3.7 g
- Area of leaf (1 mg/l, 2 °C, 3 days): 10.2 cm^2
- Height (1 mg/l, 2 °C, 3 days): 7.2 cm
- Weight of root (1 mg/l, 2 °C, 3 days): 2.6 g
- Area of leaf (1 mg/l, 2 °C, 6 days): 11.7 cm^2
- Height (1 mg/l, 2 °C, 6 days): 7.2 cm
- Weight of root (1 mg/l, 2 °C, 6 days): 3.0 g
- Area of leaf (1 mg/l, 2 °C, 9 days): 12 cm^2
- Height (1 mg/l, 2 °C, 9 days): 7.4 cm
- Weight of root (1 mg/l, 2 °C, 9 days): 3.2 g
- Area of leaf (1 mg/l, 2 °C, 12 days): 13 cm^2
- Height (1 mg/l, 2 °C, 12 days): 8 cm
- Number of leaf (1 mg/l, 2 °C, 12 days): 3
- Number of tiller (1 mg/l, 2 °C, 12 days): 3
- Weight of root (1 mg/l, 2 °C, 12 days): 3.7 g
- Area of leaf (1 mg/l, 3 °C, 3 days): 10.4 cm^2
- Height (1 mg/l, 3 °C, 3 days): 7.4 cm
- Weight of root (1 mg/l, 3 °C, 3 days): 2.5 g
- Area of leaf (1 mg/l, 3 °C, 6 days): 12 cm^2
- Height (1 mg/l, 3 °C, 6 days): 7.5 cm
- Weight of root (1 mg/l, 3 °C, 6 days): 2.6 g
- Area of leaf (1 mg/l, 3 °C, 9 days): 12 cm^2
- Height (1 mg/l, 3 °C, 9 days): 7.7 cm
- Weight of root (1 mg/l, 3 °C, 9 days): 2.7 g
- Area of leaf (1 mg/l, 3 °C, 12 days): 13.2 cm^2
- Height (1 mg/l, 3 °C, 12 days): 8.1 cm
- Number of leaf (1 mg/l, 3 °C, 12 days): 3
- Number of tiller (1 mg/l, 3 °C, 12 days): 2
- Weight of root (1 mg/l, 3 °C, 12 days): 2.9 g
- Area of leaf (1 mg/l, 4 °C, 3 days): 10.9 cm^2
- Height (1 mg/l, 4 °C, 3 days): 7.4 cm
- Weight of root (1 mg/l, 4 °C, 3 days): 2.5 g
- Area of leaf (1 mg/l, 4 °C, 6 days): 12 cm^2
- Height (1 mg/l, 4 °C, 6 days): 7.5 cm
- Weight of root (1 mg/l, 4 °C, 6 days): 2.7 g
- Area of leaf (1 mg/l, 4 °C, 9 days): 13.2 cm^2
- Height (1 mg/l, 4 °C, 9 days): 7.8 cm
- Weight of root (1 mg/l, 4 °C, 9 days): 3.0 g
- Area of leaf (1 mg/l, 4 °C, 12 days): 14 cm^2
- Height (1 mg/l, 4 °C, 12 days): 8.2 cm
- Number of leaf (1 mg/l, 4 °C, 12 days): 3
- Number of tiller (1 mg/l, 4 °C, 12 days): 2
- Weight of root (1 mg/l, 4 °C, 12 days): 3.2 g
- Area of leaf (1 mg/l, 5 °C, 3 days): 11.1 cm^2
- Height (1 mg/l, 5 °C, 3 days): 7.4 cm
- Weight of root (1 mg/l, 5 °C, 3 days): 2.9 g
- Area of leaf (1 mg/l, 5 °C, 6 days): 13.1 cm^2
- Height (1 mg/l, 5 °C, 6 days): 7.5 cm
- Weight of root (1 mg/l, 5 °C, 6 days): 3.5 g
- Area of leaf (1 mg/l, 5 °C, 9 days): 18 cm^2
- Height (1 mg/l, 5 °C, 9 days): 8.2 cm
- Weight of root (1 mg/l, 5 °C, 9 days): 3.7 g
- Area of leaf (1 mg/l, 5 °C, 12 days): 20 cm^2
- Height (1 mg/l, 5 °C, 12 days): 8.3 cm
- Number of leaf (1 mg/l, 5 °C, 12 days): 3
- Number of tiller (1 mg/l, 5 °C, 12 days): 2
- Weight of root (1 mg/l, 5 °C, 12 days): 4.5 g
